One assay concerns the target T1, TGF-beta receptor type-1 (Homo sapiens, UniProt P36897).
T1 sequence (P36897 whole entry): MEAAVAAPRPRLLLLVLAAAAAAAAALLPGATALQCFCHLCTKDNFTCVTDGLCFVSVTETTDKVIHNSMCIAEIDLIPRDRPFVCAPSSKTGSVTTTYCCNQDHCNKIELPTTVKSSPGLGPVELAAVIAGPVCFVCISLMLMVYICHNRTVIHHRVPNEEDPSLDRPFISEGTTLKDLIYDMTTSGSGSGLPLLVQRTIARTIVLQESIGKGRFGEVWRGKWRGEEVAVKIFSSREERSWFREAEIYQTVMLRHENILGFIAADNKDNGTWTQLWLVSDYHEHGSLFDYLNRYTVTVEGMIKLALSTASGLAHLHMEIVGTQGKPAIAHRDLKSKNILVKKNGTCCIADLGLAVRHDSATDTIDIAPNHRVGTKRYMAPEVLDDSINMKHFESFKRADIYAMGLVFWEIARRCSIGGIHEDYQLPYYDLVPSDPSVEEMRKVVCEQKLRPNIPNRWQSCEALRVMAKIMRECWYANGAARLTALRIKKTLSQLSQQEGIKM
Put plainly: Inhibition of human recombinant GST-fused ALK5 expressed in Sf9 cells.

For assay [1], the target named is Mitogen-activated protein kinase 14 (Homo sapiens, UniProt Q16539). The assay can be described thus: Inhibition of human recombinant p38alpha expressed in Escherichia coli using ATF2 as a substrate by radioisotopic protein kinase assay.
Assay [2] concerns the target T2, TGF-beta receptor type-1 (Homo sapiens) (UniProt P36897).
T2 sequence (whole entry): T1 sequence (P36897 whole entry)
The assay can be described thus: Inhibition of human recombinant ALK5 activity in human HaCaT cells assessed as inhibition of TGFbeta-induced p3TP-luciferase reporter activity. The assay is classed as cell-based. For orientation: A reporter such as luciferase makes a cellular process visible.

Bounds are passed on as bounds.

Chain of Mitogen-activated protein kinase 14 (Q16539 whole entry): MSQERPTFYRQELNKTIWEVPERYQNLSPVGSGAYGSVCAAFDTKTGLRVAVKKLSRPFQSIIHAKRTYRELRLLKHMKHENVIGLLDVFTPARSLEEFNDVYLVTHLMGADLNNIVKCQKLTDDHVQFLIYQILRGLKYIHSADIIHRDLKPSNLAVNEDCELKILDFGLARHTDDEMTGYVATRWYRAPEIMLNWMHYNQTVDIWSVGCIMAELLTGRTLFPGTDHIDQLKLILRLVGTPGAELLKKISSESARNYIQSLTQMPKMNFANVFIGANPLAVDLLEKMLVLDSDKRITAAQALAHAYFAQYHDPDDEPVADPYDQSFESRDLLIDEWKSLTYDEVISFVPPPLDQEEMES

As usually defined, the IC50 is the concentration that inhibits the measured activity by half. For the molecule `Cc1cccc(-c2nn(CC(=O)Nc3cccc(C(N)=O)c3)cc2-c2ccc3ncccc3c2)n1`, the results for the IC50 (at TGF-beta receptor type-1; in assay [1]) were 75 nM and above 1000 nM, respectively.

In the case of `Cc1cccc(-c2[nH]c(Cc3cccc(C(N)=O)c3)nc2-c2ccc3nccnc3c2)n1`, the IC50 at TGF-beta receptor type-1 is 17 nM; in assay [1] it was 480 nM.

In the case of `Cc1cccc(-c2nn(CC(=S)Nc3ccccc3)cc2-c2ccc3ncccc3c2)n1`, the IC50 on TGF-beta receptor type-1 was 94 nM; in assay [1] it was above 1000 nM.

Consider `Cc1cccc(-c2nn(CC(=S)Nc3cccc(C#N)c3)cc2-c2ccc3ncccc3c2)n1`, for which the IC50 at TGF-beta receptor type-1 is 51 nM; in assay [1], above 1000 nM.

In the case of `Cc1cccc(-c2nn(CCC(=O)Nc3ccccc3)cc2-c2ccc3ncccc3c2)n1`, the results for the half-maximal inhibitory concentration (IC50) (at TGF-beta receptor type-1; in assay [1]) were 25 nM and above 1000 nM, respectively.

`COc1ccnc2ccc(-c3cnn(CC(=O)Nc4cccc(C#N)c4)c3-c3cccc(C)n3)cc12`: the IC50 (at TGF-beta receptor type-1; in assay [1]) was above 1000 nM each time.

As to `COc1ccnc2ccc(-c3cnn(CC(=O)Nc4ccccc4)c3-c3cccc(C)n3)cc12`, the IC50 (at TGF-beta receptor type-1; in assay [1]) was above 1000 nM in each case.

For `Cc1cccc(-c2c(-c3ccc4ncccc4c3)cnn2CC(=O)Nc2cccc(C#N)c2)n1`, the IC50 (on TGF-beta receptor type-1; in assay [1]) was above 1000 nM each time.

As to `Cc1cccc(-c2c(-c3ccc4ncccc4c3)cnn2CC(=O)Nc2cccc(C(N)=O)c2)n1`, the IC50 (at TGF-beta receptor type-1; in assay [1]) was above 1000 nM each time.

`COc1ccnc2ccc(-c3cn(CCC(=O)Nc4cccc(C#N)c4)nc3-c3cccc(C)n3)cc12`: the IC50 (at TGF-beta receptor type-1; in assay [1]) was above 1000 nM in each case.

Consider `Cc1cccc(-c2c(-c3ccc4ncccc4c3)cnn2CC(=O)Nc2ccccc2)n1`, for which the IC50 (at TGF-beta receptor type-1; in assay [1]) was above 1000 nM throughout.

Consider `Cc1cccc(-c2nn(CCC(=S)Nc3ccccc3)cc2-c2ccc3ncccc3c2)n1`, for which the IC50 on TGF-beta receptor type-1 is 88 nM; in assay [1], above 1000 nM.

Consider `COc1ccnc2ccc(-c3cn(CC(=O)Nc4cccc(C#N)c4)nc3-c3cccc(C)n3)cc12`, for which the IC50 (at TGF-beta receptor type-1; in assay [1]) was above 1000 nM in each case.

Turning to `Cc1cccc(-c2nn(CCC(=O)Nc3cccc(C#N)c3)cc2-c2ccc3ncccc3c2)n1`, the figures for the IC50 (on TGF-beta receptor type-1; in assay [1]) were 101 nM and above 1000 nM, respectively.

In the case of `Cc1cccc(-c2nn(CC(=O)Nc3ccccc3)cc2-c2ccc3ncccc3c2)n1`, the IC50 at TGF-beta receptor type-1 was 207 nM; in assay [1], above 1000 nM.

Take `COc1ccnc2ccc(-c3cn(CC(=O)Nc4ccccc4)nc3-c3cccc(C)n3)cc12`: the 50% inhibitory concentration (IC50) (on TGF-beta receptor type-1; in assay [1]) was above 1000 nM throughout.

Take `Cc1cccc(-c2nn(CCC(=S)Nc3cccc(C#N)c3)cc2-c2ccc3ncccc3c2)n1`: the IC50 at TGF-beta receptor type-1 came out at 232 nM; in assay [1] it was 630 nM.

As to `Cc1cccc(-c2nn(CC(=O)Nc3cccc(C#N)c3)cc2-c2ccc3ncccc3c2)n1`, the values for the IC50 (at TGF-beta receptor type-1; in assay [1]) were 22 nM and above 1000 nM, respectively. Besides, in assay [2], the inhibition entry is “Dose-dependent effect”.

Source of the values: ChEMBL document CHEMBL1765000, “Synthesis and biological evaluation of 1-substituted-3(5)-(6-methylpyridin-2-yl)-4-(quinolin-6-yl)pyrazoles as transforming growth factor-β type 1 receptor kinase inhibitors” (Bioorg Med Chem, 2011).
